We go through 19 compounds from patent US20240067662A1, “KRAS INHIBITORS” (Bristol-Myers Squibb Company, priority 2022, published 2024).

Some results are limits rather than exact numbers.

The test deals with GMPPNP-loaded KRAS G12C (Homo sapiens, UniProt P01116, G12C). The test is described as follows: KRAS G12C RAF Disruption Assay (HTRF). The format is biochemical. To be noted: recombinant GMPPNP-loaded KRAS G12C (5 nM), 20 min with compound; GST-RAF1 RBD (9 nM); HTRF signal; read-out: KRASG12C RAF Disruption Assay (IC50). A digest of the protocol: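 GMPPNP-loaded KRAS G12C (5 nM) was preincubated with compound for 20 min at room temperature in Tris pH 7.5 buffer with NaCl, MgCl2, DTT and BSA. GST-RAF1 RBD (9 nM) was added for 20 min, then SA-Tb (0.25 nM) for 3 h. IC50 was fitted from the HTRF 520/495 ratio.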
Sequence of GMPPNP-loaded KRAS G12C (P01116 1-188 isoform P01116-2 G12C): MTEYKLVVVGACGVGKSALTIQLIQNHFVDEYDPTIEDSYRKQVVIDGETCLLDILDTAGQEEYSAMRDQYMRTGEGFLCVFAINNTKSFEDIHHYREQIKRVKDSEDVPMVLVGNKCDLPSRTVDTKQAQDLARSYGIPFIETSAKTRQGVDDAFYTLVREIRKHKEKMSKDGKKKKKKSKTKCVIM
As a reminder, the IC50 is the concentration at which inhibition is half-maximal. Take `C#Cc1c(F)ccc2cc(O)cc(-c3ncc4c(N5CCN(C(=O)/C(F)=C/c6ncccn6)C[C@@H]5C)nc(OC[C@@]56CCCN5C[C@H](F)C6)nc4c3F)c12` [Example 66, (Z)-1-((S)-4-(7-(8-ethynyl-7-fluoro-3-hydroxynaphthalen-1-yl)-8-fluoro-2-(((2R, 7aS)-2-fluorotetrahydro-1H-pyrrolizin-7a(5H)-yl)methoxy)pyrido[4,3-d]pyrimidin-4-yl)-3-methylpiperazin-1-yl)-2-fluoro-3-(pyrimidin-2-yl)prop-2-en-1-one]: the IC50 is less than 0.002 µM.
Then `N#CC[C@H]1CN(c2nc(OC[C@@]34CCCN3C[C@H](F)C4)nc3c(F)c(-c4cc(O)ccc4C(F)(F)F)ncc23)CCN1C(=O)/C(F)=C/c1ccccn1` [Compound 94, 2-((S)-4-(8-fluoro-2-(((2R, 7aS)-2-fluorotetrahydro-1H-pyrrolizin-7a(5H)-yl)methoxy)-7-(5-hydroxy-2-(trifluoromethyl)phenyl)pyrido[4,3-d]pyrimidin-4-yl)-1-((Z)-2-fluoro-3-(pyridin-2-yl)acryloyl)piperazin-2-yl)acetonitrile], with 0.034 µM.
Then `C#Cc1cccc2cccc(-c3ncc4c(N5CCC6(CCN6C(=O)/C(F)=C/c6ccccn6)C5)nc(OC[C@@]56CCCN5C[C@H](F)C6)nc4c3F)c12` (single isomer, unassigned) [Compound 102], with 0.087 µM; and `C#Cc1c(F)ccc2cccc(-c3ncc4c(N5CCN(C(=O)/C(F)=C/c6ccccn6)CC5)nc(OC[C@@]56CCCN5C[C@H](F)C6)nc4c3F)c12` [Example 31, (Z)-1-(4-(7-(8-ethynyl-7-fluoronaphthalen-1-yl)-8-fluoro-2-(((2R, 7aS)-2-fluorotetrahydro-1H-pyrrolizin-7a(5H)-yl)methoxy)pyrido[4,3-d]pyrimidin-4-yl)piperazin-1-yl)-2-fluoro-3-(pyridin-2-yl)prop-2-en-1-one], with 0.064 µM; and `N#CC[C@H]1CN(c2nc(OC[C@@]34CCCN3C[C@H](F)C4)nc3c(F)c(-c4cc(Cl)ccc4C(F)(F)F)ncc23)CCN1C(=O)/C(F)=C/c1nccs1` [Example 46, 2-((S)-1-((Z)-2-fluoro-3-(thiazol-2-yl)acryloyl)-4-(8-fluoro-7-(5-chloro-2-(trifluoromethyl)phenyl)-2-(((2R, 7aS)-2-fluorotetrahydro-1H-pyrrolizin-7a(5H)-yl)methoxy)pyrido[4,3-d]pyrimidin-4-yl)piperazin-2-yl)acetonitrile], with 0.39 µM.
With `N#CC[C@H]1CN(c2nc(OC[C@@]34CCCN3C[C@H](F)C4)nc3c(F)c(-c4cc(F)ccc4C(F)F)ncc23)CCN1C(=O)/C(F)=C/c1nccs1` [Example 43, 2-((S)-4-(7-(2-(difluoromethyl)-5-fluorophenyl)-8-fluoro-2-(((2R, 7aS)-2-fluorotetrahydro-1H-pyrrolizin-7a(5H)-yl)methoxy)pyrido[4,3-d]pyrimidin-4-yl)-1-((Z)-2-fluoro-3-(thiazol-2-yl)acryloyl)piperazin-2-yl)acetonitrile], the IC50 came to 1.1 µM.
Then `C#Cc1cccc2cccc(-c3ncc4c(N(C)[C@H]5CN(C(=O)/C(F)=C/c6cnccn6)C[C@H]5F)nc(OC[C@@]56CCCN5C[C@H](F)C6)nc4c3F)c12` [Compound 130, (Z)-1-((3S,4R)-3-((7-(8-ethynylnaphthalen-1-yl)-8-fluoro-2-(((2R, 7aS)-2-fluorotetrahydro-1H-pyrrolizin-7a(5H)-yl)methoxy)pyrido[4,3-d]pyrimidin-4-yl)(methyl)amino)-4-fluoropyrrolidin-1-yl)-2-fluoro-3-(pyrazin-2-yl)prop-2-en-1-one], with 0.06 µM.
Then `C#Cc1cccc2cccc(-c3ncc4c(N(C)C5CCN(C(=O)/C(F)=C/c6ccccn6)C5C)nc(OC[C@@]56CCCN5C[C@H](F)C6)nc4c3F)c12` (single isomer, unassigned) [Example 74 trans isomer 1], with 0.0025 µM; and `C#Cc1c(F)ccc2cc(O)cc(-c3ncc4c(N5CC6CCC(C5)N6C(=O)/C(Cl)=C/c5ccccn5)nc(OC[C@@]56CCCN5C[C@H](F)C6)nc4c3F)c12` [Compound 8, (Z)-1-((1R, 5S)-3-(7-(8-ethynyl-7-fluoro-3-hydroxynaphthalen-1-yl)-8-fluoro-2-(((2R, 7aS)-2-fluorotetrahydro-1H-pyrrolizin-7a(5H)-yl)methoxy)pyrido[4,3-d]pyrimidin-4-yl)-3,8-diazabicyclo[3.2.I]octan-8-yl)-2-chloro-3-(pyridin-yl)prop-2-en-1-one], with 1.3 µM.
With `C#Cc1c(F)ccc2cccc(-c3ncc4c(N5CCN(C(=O)/C(F)=C/c6nccs6)CC5)nc(OC[C@@]56CCCN5C[C@H](F)C6)nc4c3F)c12` [Example 53, (Z)-1-(4-(7-(8-ethynyl-7-fluoronaphthalen-1-yl)-8-fluoro-2-(((2R, 7aS)-2-fluorotetrahydro-1H-pyrrolizin-7a(5H)-yl)methoxy)pyrido[4,3-d]pyrimidin-4-yl)piperazin-1-yl)-2-fluoro-3-(thiazol-2-yl)prop-2-en-1-one], the IC50 came to 0.044 µM.
Then `C#Cc1c(F)ccc2cc(O)cc(-c3ncc4c(N5CCN(C(=O)/C(F)=C/c6cccnn6)CC5)nc(OC[C@@]56CCCN5C[C@H](F)C6)nc4c3F)c12` [Example 55, (Z)-1-(4-(7-(8-ethynyl-7-fluoro-3-hydroxynaphthalen-1-yl)-8-fluoro-2-(((2R, 7aS)-2-fluorotetrahydro-1H-pyrrolizin-7a(5H)-yl)methoxy)pyrido[4,3-d]pyrimidin-4-yl)piperazin-1-yl)-2-fluoro-3-(pyridazin-3-yl)prop-2-en-1-one], with 0.002 µM.
Then `Cn1ncc2cccc(-c3ncc4c(N5CCN(C(=O)/C(F)=C/c6ccccn6)[C@@H](CC#N)C5)nc(OC[C@@]56CCCN5C[C@H](F)C6)nc4c3F)c21` [Example 51, 2-((S)-4-(8-fluoro-2-(((2R, 7aS)-2-fluorotetrahydro-1H-pyrrolizin-7a(5H)-yl)methoxy)-7-(1-methyl-1H-indazol-7-yl)pyrido[4,3-d]pyrimidin-4-yl)-1-((Z)-2-fluoro-3-(pyridin-2-yl)acryloyl)piperazin-2-yl)acetonitrile], with 0.36 µM; and `C#Cc1cccc2cccc(-c3ncc4c(N(C)C5CCN(C(=O)/C(F)=C/c6ccccn6)C5C)nc(OC[C@@]56CCCN5C[C@H](F)C6)nc4c3F)c12` (single isomer, unassigned) [Example 74 cis isomer 2], with 0.91 µM.
Take `C#Cc1cccc2cccc(-c3ncc4c(N5CCN(C(=O)/C(F)=C/c6nccs6)CC5)nc(OC[C@@]56CCCN5C[C@H](F)C6)nc4c3F)c12` [Example 47, (Z)-1-(4-(7-(8-ethynylnaphthalen-1-yl)-8-fluoro-2-(((2R, 7aS)-2-fluorotetrahydro-1H-pyrrolizin-7a(5H)-yl)methoxy)pyrido[4,3-d]pyrimidin-4-yl)piperazin-1-yl)-2-fluoro-3-(thiazol-2-yl)prop-2-en-1-one]: the IC50 is 0.1 µM.
Consider `C#Cc1c(F)ccc2cc(O)cc(-c3ncc4c(N5CC6CCC(C5)N6C(=O)/C(F)=C/c5nc(Br)cs5)nc(OC[C@@]56CCCN5C[C@H](F)C6)nc4c3F)c12` [Compound 11, (Z)-3-(4-bromothiazol-2-yl)-1-((JR, 5S)-3-(7-(8-ethynyl-7-fluoro-3-hydroxynaphthalen-1-yl)-8-fluoro-2-(((2R, 7aS)-2-fluorotetrahydro-1H-pyrrolizin-7a(5H)-yl)methoxy)pyrido[4,3-d]pyrimidin-4-yl)-3,8-diazabicyclo[3.2.1]octan-8-yl)-2-fluoroprop-2-en-1-one], for which the IC50 was 0.45 µM.
Then `C#Cc1c(F)ccc2cc(O)cc(-c3ncc4c(N5C[C@H]6CC[C@@H](C5)N6C(=O)/C(F)=C/c5ccc(Br)cn5)nc(OC[C@@]56CCCN5C[C@H](F)C6)nc4c3F)c12` [Compound 9, (Z)-3-(5-bromopyridin-2-yl)-1-((1R, 5S)-3-(7-(8-ethynyl-7-fluoro-3-hydroxynaphthalen-1-yl)-8-fluoro-2-(((2R, 7aS)-2-fluorotetrahydro-1H-pyrrolizin-7a(5H)-yl)methoxy)pyrido[4,3-d]pyrimidin-4-yl)-3,8-diazabicyclo[3.2.1]octan-8-yl)-2-fluoroprop-2-en-1-one], with 0.35 µM; and `C#Cc1cccc2cccc(-c3ncc4c(N5C[C@H]6CN(C(=O)/C(F)=C/c7ncccn7)C[C@H]6C5)nc(OC[C@@]56CCCN5C[C@H](F)C6)nc4c3F)c12` [Compound 101, (Z)-1-((3aR, 6aS)-5-(7-(8-ethynylnaphthalen-1-yl)-8-fluoro-2-(((2R, 7aS)-2-fluorotetrahydro-1H-pyrrolizin-7a(5H)-yl)methoxy)pyrido[4,3-d]pyrimidin-4-yl)hexahydropyrrolo[3,4-c]pyrrol-2(1H)-yl)-2-fluoro-3-(pyrimidin-2-yl)prop-2-en-1-one], with 12 µM.
Then `C#Cc1c(F)ccc2cc(O)cc(-c3ncc4c(N5C[C@H]6CC[C@@H](C5)N6C(=O)/C(F)=C/c5ccncn5)nc(OC[C@@]56CCCN5C[C@H](F)C6)nc4c3F)c12` [Compound 18, (Z)-1-((1R, 5S)-3-(7-(8-ethynyl-7-fluoro-3-hydroxynaphthalen-1-yl)-8-fluoro-2-(((2R, 7aS)-2-fluorotetrahydro-1H-pyrrolizin-7a(5H)-yl)methoxy)pyrido[4,3-d]pyrimidin-4-yl)-3,8-diazabicyclo[3.2.1]octan-8-yl)-2-fluoro-3-(pyrimidin-4-yl)prop-2-en-1-one], with 0.025 µM; and `C#Cc1cccc2cccc(-c3ncc4c(N5CC6(CCN(C(=O)/C(F)=C/c7ncccn7)CC6)C5)nc(OC[C@@]56CCCN5C[C@H](F)C6)nc4c3F)c12` [Compound 92, (Z)-1-(2-(7-(8-ethynylnaphthalen-1-yl)-8-fluoro-2-(((2R, 7aS)-2-fluorotetrahydro-1H-pyrrolizin-7a(5H)-yl)methoxy)pyrido[4,3-d]pyrimidin-4-yl)-2,7-diazaspiro[3.5]nonan-7-yl)-2-fluoro-3-(pyrimidin-2-yl)prop-2-en-1-one], with 24 µM.
